# “Also recorded” adds a separate entry of the source. Structures can show the parent of a compound that is named as a salt. Starred links: 1 amine or outer side, 2 acyl side, 3 side chain; linkers in the order of their positions; H or OH if unused. Positions of bridges follow the written chain, without caps; N, C: chain ends. Non-standard residues stand in square brackets, D forms with d. Residues, ends and D or L forms follow the SMILES beside them. Chains are numbered I, II in the order given. Actinocin(9to1) = Cc1c2oc3c(C)ccc(C(=O)[*:1])c3nc-2c(C(=O)[*:2])c(N)c1=O; NMeV = CN[C@H](C(=O)O)C(C)C; Sar = CNCC(=O)O
# System: HMGA2-FL814 interaction
# Assay: PDI-ELISA for HMGA2 binding to DNA oligomer FL814
# Parameters: species or system mammalian
# Details: for OD450 of the PDI-ELISA in the presence of the compound: 100 nM compound, 100 nM FL814, 1 μM HMGA2, 2×SSCT, OD450 without drug 1.44; for IC50: 25° C., read-out: IC50 for inhibition of binding of HMGA2 to DNA; for inhibition of HMGA2-FL814 interactions: compound at 100 nM in 2×SSCT, FIG. 12 / Table 1
Molecule,OD450 of the PDI-ELISA in the presence of the compound,also measured
"CN(C)c1ccc2nc3ccc(=[N+](C)C)cc-3sc2c1 [Methylene Blue, methylene blue]",0.93,
"Nc1ccc2cc3ccc(N)cc3nc2c1 [Proflavine hydrochloride, proflavine hydrochloride]",,OD450 of the PDI-ELISA in the presence of the compound (hydrochloride): 1.5
C[n+]1ccccc1-c1c2nc(c(-c3cccc[n+]3C)c3ccc([nH]3)c(-c3cccc[n+]3C)c3nc(c(-c4cccc[n+]4C)c4ccc1[nH]4)C=C3)C=C2.[Cl-].[Cl-].[Cl-].[Cl-] [TMPyP2],1.7,"enhancement of HMGA2 binding to FL814 (OD450) (titration, 100 nM FL814, 1 μM HMGA2, FIG. 14): not able to stimulate"
"Nc1ccc2cc3ccc(N)cc3nc2c1 [Proflavine hemisulfate, proflavine hemisulfate]",1.49,
CN1CCN(c2ccc3[nH]c(-c4ccc5[nH]c(-c6ccc(O)cc6)nc5c4)nc3c2)CC1 [Hoechst 33258],0.166,IC50: 73 ± 9.6 nM; inhibition of HMGA2-FL814 interactions: potently inhibit; also recorded: completely inhibit
CCN1/C(=C/C=C/C=C/c2oc3ccccc3[n+]2CC)Oc2ccccc21.[I-] [DODC],1.3,
"Cl.NCc1ccc2ccc3cccc4ccc1c2c34 [1-Pyrenemethylamine hydrochloride, 1-pyrenemethylamine hydrochloride]",1.36,
"COc1ccc2cc3[n+](cc2c1OC)CCc1cc2c(cc1-3)OCO2 [Berberine chloride, berberine chloride]",0.91,
COc1cccc2c1C(=O)c1c(O)c3c(c(O)c1C2=O)C[C@@](O)(C(C)=O)C[C@@H]3O[C@H]1C[C@H](NCc2ccc(CN[C@H]3C[C@H](O[C@H]4C[C@](O)(C(C)=O)Cc5c(O)c6c(c(O)c54)C(=O)c4c(OC)cccc4C6=O)O[C@@H](C)[C@H]3O)cc2)[C@H](O)[C@H](C)O1 [WP631],0.21,IC50: 41 ± 4.5 nM; inhibition of HMGA2-FL814 interactions: potently inhibit; also recorded: completely inhibit
"O=c1cc(-c2ccccc2)oc2ccc3ccccc3c12 [b-Naphthoflavone, β-naphthoflavone]",1.56,
"O=c1cc(-c2ccccc2)oc2c1ccc1ccccc12 [a-Naphthoflavone, α-naphthoflavone]",1.91,
"CN(C)c1ccc(C(=C2C=CC(=[N+](C)C)C=C2)c2ccc([N+](C)(C)C)cc2)cc1.[Cl-].[Cl-] [Methyl Green, methyl green]",1.06,
"Cc1c2oc3c(C)ccc(C(=O)N[C@@H]4C(=O)N[C@H](C(C)C)C(=O)N5CCC[C@H]5C(=O)N(C)CC(=O)N(C)[C@@H](C(C)C)C(=O)O[C@@H]4C)c3nc-2c(C(=O)N[C@@H]2C(=O)N[C@H](C(C)C)C(=O)N3CCC[C@H]3C(=O)N(C)CC(=O)N(C)[C@@H](C(C)C)C(=O)O[C@@H]2C)c(N)c1=O [Actinomycin D, actinomycin D] (I: T[dV]P[Sar][NMeV] / II: T[dV]P[Sar][NMeV]; ester I:1-I:C, II:1-II:C; linker I:N-II:N via Actinocin(9to1))",1.03,
"N=C(N)c1ccc(OCCCCCOc2ccc(C(=N)N)cc2)cc1 [Pentamidine, pentamidine isethionate salt]",0.65,
"COC1C(O)CC(OC2CC(Oc3cc4cc5c(c(O)c4c(O)c3C)C(=O)[C@@H](OC3CC(OC4CC(OC6CC(C)(O)C(OC(C)=O)C(C)O6)C(O)C(C)O4)C(O)C(C)O3)[C@H]([C@H](OC)C(=O)[C@@H](O)[C@@H](C)O)C5)OC(C)C2OC(C)=O)OC1C (stereo partly drawn) [Chromomycin, chromomycin]",1.3,
"COc1cc2cc3c4cc(OC)c(OC)cc4cc[n+]3c(C)c2cc1OC.[Cl-] [Coralyne chloride, coralyne chloride]",1.38,
COc1cccc2c1C(=O)c1c(O)c3c(c(O)c1C2=O)C[C@@](O)(C(C)=O)C[C@@H]3O[C@H]1C[C@H](NCc2cccc(CN[C@@H]3C[C@@H](O[C@H]4C[C@](O)(C(C)=O)Cc5c(O)c6c(c(O)c54)C(=O)c4c(OC)cccc4C6=O)O[C@H](C)[C@@H]3O)c2)[C@H](O)[C@H](C)O1 [WP762],0.56,IC50: 115 ± 19.7 nM; inhibition of HMGA2-FL814 interactions: potently inhibit
N=C(N)c1ccc(-c2cc3ccc(C(=N)N)cc3[nH]2)cc1 [DAPI],0.161,IC50: 60.6 ± 8.5 nM; inhibition of HMGA2-FL814 interactions: potently inhibit; also recorded: completely inhibit
"O=C1c2ccc3c4ccc5c6c(ccc(c7ccc(c2c37)C(=O)N1CCN1CCCCC1)c64)C(=O)N(CCN1CCCCC1)C5=O [PIPER, N,N′-bis[2-(1-piperidino)ethyl]-3,4,9,10-perylenetetracarboxylic diimide]",1.27,
"CC(=O)NCC(=O)O.CC(=O)NCC(=O)O.N=C(N)c1ccc(N=NNc2ccc(C(=N)N)cc2)cc1 [Berenil, berenil]",0.52,
Cc1c2ccncc2c(C)c2c1[nH]c1ccccc12 [Ellipticine],1.39,
"CN1C(=Cc2cc[n+](C)c3ccccc23)Sc2ccccc21 [Thiazole orange, thiazole orange]",1.83,
"CCN(CC)CCCC(C)Nc1c2ccc(Cl)cc2nc2ccc(OC)cc12 (stereo not drawn) [Quinacrine dihydrochloride, quinacrine dihydrochloride]",1.46,
N-methyl mesoporphyrin [NMM 580],1.62,

# — patent US20150253323A1, “METHODS AND KITS FOR HIGH THROUGHPUT SCREENING FOR COMPOUNDS TARGETING DNA-BINDING AND RNA-BINDING PROTEINS” (The Florida International University Board of Trustees, priority 2014, published 2015)
